target: T1, human full-length recombinant PKC βII (Homo sapiens, UniProt P05771); assay: Determination of PKC βII inhibition (Caliper mobility shift kinase assay); type: biochemical; settings: final compound concentration 1.14 μM (±0.15 μM); 60 min incubation at 32° C.
T1 construct: Active human full-length recombinant PKC βII; purchased Invitrogen GmbH, Darmstadt, Germany
Method: Determination of PKC βII Inhibition
PKC βII inhibition was determined according to the following protocol:
Active human full-length recombinant PKC βII and the peptide substrate, Fluorescein-RFARKGSLRQKNV, were purchased from Invitrogen GmbH, Darmstadt, Germany. Adenosine-5′-triphosphate (ATP), bovine serum albumine (BSA), dimethylsulphoxide (DMSO), 4-(2-hydroxyethyl)piperazine-1-ethanesulfonic acid (Hepes), Triton X-100, 1,2-Dioleoyl-sn-glycerol (DAG), L-α-Phosphatidyl-L-serine (PS), calcium chloride (CaCl2), and Pluronic F-68 were purchased from Sigma-Aldrich, Munich, Germany. Magnesium chloride, 1 M sodium hydroxide solution, 1M hydrochloric acid solution and EDTA were obtained from Merck Biosciences, Darmstadt, Germany.
Test compounds were diluted to three times the test concentration in buffer 1 (30 mM Hepes-NaOH, pH 7.4, 0.01% Pluronic F-68 and 3% (v/v) DMSO). The […] enzyme was diluted to a concentration of 30 ng/ml in buffer 2 (30 mM Hepes-NaOH, pH 7.4, 15 mM MgCl2, 150 μM CaCl2, 150 μg/ml PS, 60 μg/ml DAG, and 0.045% (w/v) Triton X-100). The peptide substrate and ATP were diluted to concentrations of 3 μM and 120 μM, respectively, in buffer 2. Two μl of the compound solution were mixed with 2 μl of the diluted enzyme in a 384-well small volume microtiter plate (Greiner, Bio-One, Frickenhausen, Germany), and the kinase reaction was initiated by addition of 2 μl of the solution containing peptide substrate and ATP. After 60 min incubation at 32° C., the reaction was stopped by addition of 20 μl of a solution containing 130 mM Hepes-NaOH, pH 7.4, 0.0195% (v/v) Brij-35, 6.5 mM EDTA, 0.13% chip coating reagent 3 (Caliper Lifescience Inc, Hopkinton, Mass.) and 6.5% (v/v) DMSO. Phosphorylation of the substrate peptide was then detected on a Caliper 3000 instrument essentially as described by Pommereau et al (J. Biomol. Screening 2004, 9(5), 409-416). Separation conditions were as follows: Pressure −0.8 psi, upstream voltage −3000 V, downstream voltage −800 V. Positive controls (buffer 1 instead of compound) and negative controls (buffer 1 instead of compound and buffer 2 instead of kinase solution) were run in parallel on each plate. Fractional turnover (R) was determined as the height of the peak of the phosphorylated peptide product divided by the sum of the unphosphorylated substrate and phosphorylated product peak heights. Percent-inhibition values for the test compounds were determined using the formula % Inhibition=100*(1−(Rcompound−Rnegative control)/(Rpositive control−Rnegative control).
In the following table % inhibition values observed with example compounds at a final concentration of 1.14 μM (±0.15 μM) are listed: […]

T1 sequence (P05771 1-673 isoform P05771-2): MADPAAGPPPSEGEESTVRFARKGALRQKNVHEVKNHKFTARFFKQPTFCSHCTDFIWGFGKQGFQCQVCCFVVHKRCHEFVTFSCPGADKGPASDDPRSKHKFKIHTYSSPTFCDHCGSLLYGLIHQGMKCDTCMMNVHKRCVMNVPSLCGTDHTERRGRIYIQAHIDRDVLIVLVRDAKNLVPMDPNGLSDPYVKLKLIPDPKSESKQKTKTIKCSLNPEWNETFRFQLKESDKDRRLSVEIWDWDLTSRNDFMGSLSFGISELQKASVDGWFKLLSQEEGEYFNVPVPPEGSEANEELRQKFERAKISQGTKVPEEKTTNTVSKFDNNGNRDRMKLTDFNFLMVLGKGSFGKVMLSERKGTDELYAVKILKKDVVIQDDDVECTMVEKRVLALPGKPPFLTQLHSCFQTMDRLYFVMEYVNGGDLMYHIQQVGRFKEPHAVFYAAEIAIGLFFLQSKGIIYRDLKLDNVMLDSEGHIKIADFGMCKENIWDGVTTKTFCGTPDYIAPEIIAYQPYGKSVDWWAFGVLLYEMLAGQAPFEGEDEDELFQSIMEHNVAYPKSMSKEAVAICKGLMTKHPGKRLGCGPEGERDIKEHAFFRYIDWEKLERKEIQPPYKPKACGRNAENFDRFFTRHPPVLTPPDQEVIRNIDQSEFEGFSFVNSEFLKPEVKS

inhibition at 1.14 µM | Compound
85% | Cc1n[nH]c2nc(-c3ccc(O)cc3F)cc(CN3CC(C)(C)OCC3(C)C)c12 [Example 56, 3-Fluoro-4-[3-methyl-4-(2,2,5,5-tetramethyl-morpholin-4-ylmethyl)-1H-pyrazolo[3,4-b]pyridin-6-yl]-phenol]
93% | CCC1(C)CN(Cc2cc(-c3ccc(O)cc3)nc3[nH]nc(C)c23)C(C)(C)CN1 (stereo not shown) [Example 57, 4-[4-(5-Ethyl-2,2,5-trimethyl-piperazin-1-ylmethyl)-3-methyl-1H-pyrazolo[3,4-b]pyridin-6-yl]-phenol]
91% | CCC1(CC)CN(Cc2cc(-c3ccc(O)c(F)c3)nc3[nH]nc(C)c23)C(C)(C)CN1 [Example 58, 4-[4-(5,5-Diethyl-2,2-dimethyl-piperazin-1-ylmethyl)-3-methyl-1H-pyrazolo[3,4-b]pyridin-6-yl]-2-fluoro-phenol]
96% | CCC1(CC)CN(Cc2cc(-c3ccc(O)cc3Cl)nc3[nH]nc(C)c23)C(C)(C)CN1 [Example 59, 3-Chloro-4-[4-(5,5-diethyl-2,2-dimethyl-piperazin-1-ylmethyl)-3-methyl-1H-pyrazolo[3,4-b]pyridin-6-yl]-phenol]
92% | Cc1n[nH]c2nc(-c3ccc(O)cc3)cc(CNC3CCNCC3(C)C)c12 (stereo not shown) [Example 60, 4-{4-[(3,3-Dimethyl-piperidin-4-ylamino)-methyl]-3-methyl-1H-pyrazolo[3,4-b]pyridin-6-yl}-phenol]
84% | Cc1n[nH]c2nc(-c3ccc(O)cc3)cc(CN3CC(C)N(Cc4cccnc4)CC3(C)C)c12 (stereo not shown) [Example 61, 4-[3-Methyl-4-(2,2,5-trimethyl-4-pyridin-3-ylmethyl-piperazin-1-ylmethyl)-1H-pyrazolo[3,4-b]pyridin-6-yl]-phenol]
99% | Cc1n[nH]c2nc(-c3ccc(O)cc3)cc(CN3CC(C)N(CC4CCCO4)CC3(C)C)c12 (stereo not shown) [Example 62, 4-{3-Methyl-4-[2,2,5-trimethyl-4-(tetrahydro-furan-2-ylmethyl)-piperazin-1-ylmethyl]-1H-pyrazolo[3,4-b]pyridin-6-yl}-phenol]
97% | COCCN1CC(C)(C)N(Cc2cc(-c3ccc(O)cc3)nc3[nH]nc(C)c23)CC1C (stereo not shown) [Example 63, 4-{4-[4-(2-Methoxy-ethyl)-2,2,5-trimethyl-piperazin-1-ylmethyl]-3-methyl-1H-pyrazolo[3,4-b]pyridin-6-yl}-phenol]
94% | COCCCN1CC(C)(C)N(Cc2cc(-c3ccc(O)cc3)nc3[nH]nc(C)c23)CC1C (stereo not shown) [Example 64, 4-{4-[4-(3-Methoxy-propyl)-2,2,5-trimethyl-piperazin-1-ylmethyl]-3-methyl-1H-pyrazolo[3,4-b]pyridin-6-yl}-phenol]
88% | Cc1n[nH]c2nc(-c3ccc(O)cc3F)cc(CN3CC(C)(C)N(CCC(F)(F)F)CC3(C)C)c12 [Example 65, 3-Fluoro-4-{3-methyl-4-[2,2,5,5-tetramethyl-4-(3,3,3-trifluoro-propyl)-piperazin-1-ylmethyl]-1H-pyrazolo[3,4-b]pyridin-6-yl}-phenol]
100% | Cc1n[nH]c2nc(-c3ccc(O)cc3F)cc(CN3CC(C)(C)N(C)CC3(C)C)c12 [Example 66, 3-Fluoro-4-[3-methyl-4-(2,2,4,5,5-penta-methyl-piperazin-1-ylmethyl)-1H-pyrazolo[3,4-b]-pyridin-6-yl]-phenol]
103% | COCCCN1CC(C)(C)N(Cc2cc(-c3ccc(O)cc3F)nc3[nH]nc(C)c23)CC1(C)C [Example 67, 3-Fluoro-4-{4-[4-(3-methoxy-propyl)-2,2,5,5-tetramethyl-piperazin-1-ylmethyl]-3-methyl-1H-pyrazolo[3,4-b]pyridin-6-yl}-phenol]
101% | Cc1n[nH]c2nc(-c3ccc(O)cc3F)cc(CN3CC(C)(C)N(CCC4CCOCC4)CC3(C)C)c12 [Example 68, 3-Fluoro-4-(3-methyl-4-{2,2,5,5-tetramethyl-4-[2-(tetrahydro-pyran-4-yl)-ethyl]-piperazin-1-ylmethyl}-1H-pyrazolo[3,4-b]pyridin-6-yl)-phenol]
92% | Cc1n[nH]c2nc(-c3ccc(O)cc3F)cc(CN3CC(C)(C)N(C[C@H]4COC(C)(C)O4)CC3(C)C)c12 [Example 69, 4-{4-[4-((S)-2,2-Dimethyl-[1,3]dioxolan-4-ylmethyl)-2,2,5,5-tetramethyl-piperazin-1-ylmethyl]-3-methyl-1H-pyrazolo[3,4-b]pyridin-6-yl}-3-fluoro-phenol]
96% | Cc1n[nH]c2nc(-c3ccc(O)cc3F)cc(CN3CC(C)(C)N(CC4CCOCC4)CC3(C)C)c12 [Example 70, 3-Fluoro-4-{3-methyl-4-[2,2,5,5-tetramethyl-4-(tetrahydro-pyran-4-ylmethyl)-piperazin-1-ylmethyl]-1H-pyrazolo[3,4-b]pyridin-6-yl}-phenol]
98% | Cc1n[nH]c2nc(-c3ccc(O)cc3F)cc(CN3CC4(CCCC4)N(C)CC3(C)C)c12 [Example 71, 3-Fluoro-4-[3-methyl-4-(6,8,8-trimethyl-6,9-diaza-spiro[4.5]dec-9-ylmethyl)-1H-pyrazolo[3,4-b]pyridin-6-yl]-phenol]
100% | Cc1n[nH]c2nc(-c3ccc(O)cc3F)cc(CN3CC(C)(C)N(CCO)CC3(C)C)c12 [Example 72, 3-Fluoro-4-{4-[4-(2-hydroxy-ethyl)-2,2,5,5-tetramethyl-piperazin-1-ylmethyl]-3-methyl-1H-pyrazolo[3,4-b]pyridin-6-yl}-phenol]
97% | Cc1n[nH]c2nc(-c3ccc(O)cc3F)cc(CN3CC(C)(C)N(C[C@H](O)CO)CC3(C)C)c12 [Example 73, (S)-3-{4-[6-(2-Fluoro-4-hydroxy-phenyl)-3-methyl-1H-pyrazolo[3,4-b]pyridin-4-ylmethyl]-2,2,5,5-tetramethyl-piperazin-1-yl}-propane-1,2-diol]
95% | COC(=O)CN1CC(C)(C)N(Cc2cc(-c3ccc(O)cc3F)nc3[nH]nc(C)c23)CC1(C)C [Example 74, {4-[6-(2-Fluoro-4-hydroxy-phenyl)-3-methyl-1H-pyrazolo[3,4-b]pyridin-4-ylmethyl]-2,2,5,5-tetramethyl-piperazin-1-yl}-acetic acid methyl ester]
96% | COCC(=O)N1CC(C)(C)N(Cc2cc(-c3ccc(O)cc3F)nc3[nH]nc(C)c23)CC1(C)C [Example 75, 1-{4-[6-(2-Fluoro-4-hydroxy-phenyl)-3-methyl-1H-pyrazolo[3,4-b]pyridin-4-ylmethyl]-2,2,5,5-tetramethyl-piperazin-1-yl}-2-methoxy-ethanone]
95% | COCCC(=O)N1CC(C)(C)N(Cc2cc(-c3ccc(O)cc3F)nc3[nH]nc(C)c23)CC1(C)C [Example 76, 1-{4-[6-(2-Fluoro-4-hydroxy-phenyl)-3-methyl-1H-pyrazolo[3,4-b]pyridin-4-ylmethyl]-2,2,5,5-tetramethyl-piperazin-1-yl}-3-methoxy-propan-1-one]
98% | Cc1n[nH]c2nc(-c3ccc(O)cc3F)cc(CN3CC(C)(C)N(C(=O)C4CCOC4)CC3(C)C)c12 (stereo not shown) [Example 77, {4-[6-(2-Fluoro-4-hydroxy-phenyl)-3-methyl-1H-pyrazolo[3,4-b]pyridin-4-ylmethyl]-2,2,5,5-tetramethyl-piperazin-1-yl}-(tetrahydro-furan-3-yl)-methanone]

From patent US9133181B2, “Substituted 6-(4-hydroxy-phenyl)-1H-pyrazolo[3,4-b]pyridine derivatives as kinase inhibitors” (SANOFI, priority 2012, dated 2015)
